The conditions of series [1]: standard pressure of about 760 mm Hg; cited from earlier work.
The nature of series [2]: Boiling point / liquid-gas phase transition temperature of core gases. It is filed as physicochemical. The note with it: interstitial pressure of 795 mm Hg; gas law approximation. An excerpt: Applicant's gaseous precursors include, for example, fluorinated carbons, perfluorocarbons, sulfur hexafluoride, perfluoro ethers and combinations thereof. As the stilled artisan will appreciate, a particular fluorinated compound, such as sulfur hexafluoride, a perfluorocarbon or a perfluoro ether, may exist in the liquid state when the compositions are first made, and are thus used as a gaseous precursor. Whether the fluorinated compound is a liquid generally depends on its liquid/gas phase transition temperature, or boiling point. For example, a preferred perfluorocarbon, perfluoropentane, has a liquid/gas phase transition temperature (boiling point) of 29.5° C. This means that perfluoropentane is generally a liquid at room temperature (about 25° C.), but is converted to a gas within the human body, the normal temperature of which is about 37° C., which is above the transition temperature of perfluoropentane. Thus, under normal circumstances, perfluoropentane is a gaseous precursor. As known to one skilled in the art, the effective boiling point of a substance may be related to the pressure to which that substance is exposed. This relationship is exemplified by the ideal gas law: PV=nRT, where P is pressure, V is volume, n is moles of substance, R is the gas constant, and T is temperature. […] Conversely, as pressure decreases, the effective boiling point decreases. […]

Take `FC(F)(F)C(F)(F)C(F)(F)C(F)(F)C(F)(F)F` [Perfluoropentane]: in series [1], the “liquid/gas phase transition temperature (boiling point)” value is 29.5 °C. Further, in series [2], the “boiling point at interstitial pressure” value was “about 30.5 °C”.
